The values below come from patent publication US20030027819A1, “Beta-sheet mimetics and methods relating to the use thereof” (Molecumetics Ltd., priority 1996, published 2003).

The term Ki denotes a measure of affinity in units of concentration, obtained from inhibition or displacement. For orientation: bioavailability means the share of a dose that reaches the circulation, judged against a reference dose that is usually intravenous. As usually defined, the IC50 is the midpoint of a concentration-inhibition curve. Low readings indicate higher potency, high ones lower potency.

One series relates to thioredoxin. In words: Insulin disulfide reduction by thioredoxin (turbidity at 650 nm). The note with it: 8 μM thioredoxin, 0-100 μM compound, 60 minutes.
Another series addresses factor VII (Homo sapiens, UniProt P08709). In words: Factor VII inhibition assay (Ki, Example 5). It is filed as biochemical. On the procedure:
(§1) The reaction progress curves were recorded by reading the plates, typically 60 times with 30 second to 2 minute intervals. Initial rates were determined by unweighted nonlinear least-squares fitting to a first order reaction in GraFit (Erithacus Software Limited, London, England).
From this concentration point seven more sequential dilutions were made for the assay.

A further series deals with factor X (Bos taurus, UniProt P00743). In words: Factor X inhibition assay (Ki, Example 5), bovine plasma enzyme. It is filed as biochemical. The following applies: bovine plasma enzyme (Example 5 protocol). The protocol:
The hydrolysis of chromogenic substrates was monitored at 405 nm. The reaction progress curves were recorded by reading the plates, typically 60 times with 30 second to 2 minute intervals. Initial rates were determined by unweighted nonlinear least-squares fitting to a first order reaction in GraFit (Erithacus Software Limited, London, England).
Buffer and substrate were the same as used for thrombin assay. A 1:100 dilution was made in the pH8.0 tris buffer to serve as the first point. Seven more dilutions from the first were made for the assay.

The target in another series is urokinase (Homo sapiens, UniProt P00749). In words: Urokinase inhibition assay (Ki, Example 5). It is filed as biochemical.
Series [1] has as its target Tissue Plasminogen Activator (t-PA) (Homo sapiens, UniProt P00750). In words: t-PA inhibition assay (Ki, Example 5). It counts as biochemical. The protocol: as §1
In the next series the target is Plasmin (Bos taurus, UniProt P06868). In words: Plasmin inhibition assay (Ki, Example 5). It is filed as biochemical, bovine. The protocol: as §1
For another series, the target named is Factor XI (Homo sapiens, UniProt P03951). Description: Factor XI inhibition assay (Ki, Example 8). It counts as biochemical. On the procedure:
as §1
Factor XI. The same buffer was utilized in this assay as in the thrombin assay. […] From this 100 μM solution, seven serial 1:5 dilutions were made in buffer for assay.

A short description of series [2]: Pharmacodynamic and pharmacokinetic study in rats. It is filed as in vivo, male Sprague Dawley rats. The note with it: rat; for half-life: read-out: terminal halflife (converted). On the procedure:
Specifically, a pharmacodynamic and pharmacokinetic study of structure (20b) was conducted in male Sprague Dawley rats. […] Groups of rats (n ═3 or 4) were sacrificed and exsanguinated at 0.25, 0.5, 1, 2, 4 and 8 hours following dosing. Efficacy parameters, aPTT and TT, were measured for each plasma sample.

The next series deals with T1, trypsin (Bos taurus, UniProt P00760).
T1 sequence (P00760 24-246): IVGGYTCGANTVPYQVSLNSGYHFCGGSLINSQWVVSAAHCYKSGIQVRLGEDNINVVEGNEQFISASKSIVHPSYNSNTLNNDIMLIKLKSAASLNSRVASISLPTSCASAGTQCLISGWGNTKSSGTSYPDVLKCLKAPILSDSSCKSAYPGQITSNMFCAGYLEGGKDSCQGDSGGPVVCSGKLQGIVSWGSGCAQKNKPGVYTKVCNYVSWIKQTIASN
Description: Trypsin inhibition assay (Ki, Example 5). It is filed as biochemical, bovine. On the procedure: as §1

Series [3] addresses T2, thrombin (Bos taurus, UniProt P00735). Description: Thrombin inhibition assay (Ki, Example 5). It counts as biochemical, bovine. Further details: thrombin; bovine plasma; 0.66; from tissue; host or cells: bovine plasma. The protocol:
as §1
Seven sequential dilutions were made from the first point for the assay.

For series [4], the system named is TNF induced V-CAM expression in human umbilical vein entothelial cells (HUVEC). In words: Inhibition of TNF induced V-CAM expression in HUVEC. It counts as cell-based. The protocol:
Upon stimulation with inflammatory cytokines, HUVEC express cell surface adhesion molecules, including E-selectin, V-CAM, and I-CAM. Proteasome antagonists inhibit TNFα induced expression of these adhesion molecules, thereby providing a mechanism for regulating leucocyte adhesion and the inflammatory response.
More specifically, compounds (65), (68), (69) and (71) were assayed by the procedures set forth by Deisher, Kaushansky and Harlan (“Inhibitors of Topoisomerase II Prevent Cytokine-Induced Expression of Vascular Cell Adhesion Molecule-1, While Augmenting the Expression of Endothelial Leukocyte Adhesion Molecule-1 on Human Umbilical Vein Endothelial Cells,” Cell Adhesion Commun. 1:133-42, 1993) (incorporated herein by reference), with the exception that tetramethyl benzidine was used in place of o-phenylenediamine-peroxide.

Series [5] deals with T2, thrombin. Description: Thrombin inhibition by solid phase compounds of Tables 11-15. It is filed as biochemical. Also on record: 100 μl of 10 μM thrombin solution. The note with it: mixtures of diastereomers; read-out: Ki as thrombin inhibitors (mark at Cpd. No.). The protocol:
Following extensive washing with DMF, the resin was treated with the acid fluoride of N-Fmoc-4-aminomethylbenzoic acid, or (81), or (86) and Hunigs' base in DMF until the Kaiser test was negative. Alternatively, the Fmoc-protected thiazole-(75) or imidazole-based (77) linkers were coupled to the resin using BOP, HOBt and DIEA. In some instances Fmoc-Leu or another amino acid was attached to the resin prior to the thiazole-(75) or imidazole-based (77) linkers via the same methodology. […] Following washing with DMF a dienoic acid was coupled to the resin-bound linkers using PyBOP, HOBt and Hunigs' base in DMF until the result of a Kaiser test was negative. The cycloaddition was performed by pretreatment of a solution of a pyrazolidinedione (not shown) or urazole in DMF with a solution of [bis(trifluoroacetoxy)iodo]benzene in DMF. […] The resin was then washed with DMF and CH2Cl2. Oxidation to the ketoamide was effected by treatment of the resin with a solution of Dess-Martin periodinane in DMSO for 60 min. […] The supernatant was collected and the resin was washed with additional TFA. The combined filtrates were concentrated in vacuo. The residue was precipitated with diethyl ether and the ether was decanted. The resulting solid was reconstituted in 1:1 CH3CN:H2O and lyophilized. […] The compounds were assayed for inhibition of coagulation enzymes as mixtures of diastereomers.

The next series relates to control plasma. Description: Prothrombin time (PT) in control plasma. It is filed as biochemical. The protocol: Then 200 μl of prewarmed (at 37° C. for ˜10 minutes) thromboplastin with calcium (from Sigma) was rapidly added into the plasma sample.

Where two headings read alike, the source gives them in different places.

Sequence of Factor XI (P03951 388-625 limits assumed): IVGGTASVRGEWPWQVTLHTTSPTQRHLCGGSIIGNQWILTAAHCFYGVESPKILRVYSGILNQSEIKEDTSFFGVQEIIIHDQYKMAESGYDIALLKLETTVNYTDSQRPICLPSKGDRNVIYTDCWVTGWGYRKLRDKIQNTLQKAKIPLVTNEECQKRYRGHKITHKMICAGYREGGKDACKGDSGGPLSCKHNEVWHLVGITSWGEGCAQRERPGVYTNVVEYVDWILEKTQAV
Sequence of Factor XI (P03951 19-387 limits assumed): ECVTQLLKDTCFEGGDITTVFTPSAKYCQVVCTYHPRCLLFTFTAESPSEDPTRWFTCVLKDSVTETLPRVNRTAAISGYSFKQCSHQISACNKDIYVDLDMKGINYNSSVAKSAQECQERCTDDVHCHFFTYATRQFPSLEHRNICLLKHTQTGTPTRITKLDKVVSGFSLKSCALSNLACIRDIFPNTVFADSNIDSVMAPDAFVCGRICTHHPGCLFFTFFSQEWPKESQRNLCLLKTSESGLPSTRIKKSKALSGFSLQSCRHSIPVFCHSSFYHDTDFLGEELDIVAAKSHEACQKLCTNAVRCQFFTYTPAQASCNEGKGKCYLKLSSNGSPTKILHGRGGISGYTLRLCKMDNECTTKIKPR
Sequence of factor VII (P08709 213-466 limits assumed): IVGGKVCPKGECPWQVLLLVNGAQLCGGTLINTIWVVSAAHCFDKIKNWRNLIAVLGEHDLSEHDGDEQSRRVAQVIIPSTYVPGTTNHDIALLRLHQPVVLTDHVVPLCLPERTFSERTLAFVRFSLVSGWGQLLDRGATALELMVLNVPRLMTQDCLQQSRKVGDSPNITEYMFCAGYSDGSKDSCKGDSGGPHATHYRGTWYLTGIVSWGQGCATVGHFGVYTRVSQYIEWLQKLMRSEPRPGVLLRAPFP
Sequence of factor VII (P08709 61-212 limits assumed): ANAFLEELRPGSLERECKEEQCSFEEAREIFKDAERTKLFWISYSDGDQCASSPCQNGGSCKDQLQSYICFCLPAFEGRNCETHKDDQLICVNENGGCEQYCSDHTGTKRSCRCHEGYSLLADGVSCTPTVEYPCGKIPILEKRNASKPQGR
Sequence of factor VII (P13726 33-295 partner): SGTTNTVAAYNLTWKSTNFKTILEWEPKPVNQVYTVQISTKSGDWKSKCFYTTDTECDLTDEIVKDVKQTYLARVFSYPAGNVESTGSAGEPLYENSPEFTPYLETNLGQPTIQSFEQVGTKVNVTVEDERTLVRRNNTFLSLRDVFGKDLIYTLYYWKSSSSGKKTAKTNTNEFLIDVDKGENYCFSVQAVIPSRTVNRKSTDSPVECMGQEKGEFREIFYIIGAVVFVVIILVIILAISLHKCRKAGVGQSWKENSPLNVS
Sequence of factor X (P00743 234-492 limits assumed): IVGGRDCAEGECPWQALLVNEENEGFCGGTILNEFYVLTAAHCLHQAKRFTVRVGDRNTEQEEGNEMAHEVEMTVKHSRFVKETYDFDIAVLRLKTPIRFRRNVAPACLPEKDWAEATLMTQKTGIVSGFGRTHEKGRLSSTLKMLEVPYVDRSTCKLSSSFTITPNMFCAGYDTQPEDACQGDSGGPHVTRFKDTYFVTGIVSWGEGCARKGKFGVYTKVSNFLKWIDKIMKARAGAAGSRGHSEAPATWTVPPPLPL
Sequence of factor X (P00743 41-180 limits assumed): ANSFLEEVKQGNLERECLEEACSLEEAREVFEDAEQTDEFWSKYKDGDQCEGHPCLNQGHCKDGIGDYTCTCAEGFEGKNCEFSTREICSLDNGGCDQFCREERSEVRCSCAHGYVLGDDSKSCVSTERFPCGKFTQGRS
Sequence of Plasmin (P06868 584-812 limits assumed): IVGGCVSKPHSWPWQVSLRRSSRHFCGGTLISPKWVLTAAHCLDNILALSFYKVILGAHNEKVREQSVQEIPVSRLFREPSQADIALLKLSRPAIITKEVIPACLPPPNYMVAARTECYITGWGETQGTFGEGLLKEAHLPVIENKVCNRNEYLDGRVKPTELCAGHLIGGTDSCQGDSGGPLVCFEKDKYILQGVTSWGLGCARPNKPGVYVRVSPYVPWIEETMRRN
Sequence of Plasmin (P06868 104-583 limits assumed): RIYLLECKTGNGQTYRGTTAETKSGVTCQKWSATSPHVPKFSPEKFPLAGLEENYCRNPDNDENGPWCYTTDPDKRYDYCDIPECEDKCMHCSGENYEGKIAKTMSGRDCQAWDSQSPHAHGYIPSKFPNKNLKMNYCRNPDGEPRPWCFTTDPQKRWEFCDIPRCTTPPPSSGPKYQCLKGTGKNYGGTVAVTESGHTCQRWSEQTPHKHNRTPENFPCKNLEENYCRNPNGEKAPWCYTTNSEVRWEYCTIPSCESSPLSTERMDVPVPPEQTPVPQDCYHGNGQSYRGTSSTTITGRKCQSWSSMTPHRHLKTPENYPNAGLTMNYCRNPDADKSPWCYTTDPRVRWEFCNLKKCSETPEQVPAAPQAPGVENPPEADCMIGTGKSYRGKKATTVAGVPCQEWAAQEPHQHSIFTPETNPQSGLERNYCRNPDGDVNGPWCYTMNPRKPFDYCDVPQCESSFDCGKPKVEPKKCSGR
Sequence of Tissue Plasminogen Activator (t-PA) (P00750 36-562): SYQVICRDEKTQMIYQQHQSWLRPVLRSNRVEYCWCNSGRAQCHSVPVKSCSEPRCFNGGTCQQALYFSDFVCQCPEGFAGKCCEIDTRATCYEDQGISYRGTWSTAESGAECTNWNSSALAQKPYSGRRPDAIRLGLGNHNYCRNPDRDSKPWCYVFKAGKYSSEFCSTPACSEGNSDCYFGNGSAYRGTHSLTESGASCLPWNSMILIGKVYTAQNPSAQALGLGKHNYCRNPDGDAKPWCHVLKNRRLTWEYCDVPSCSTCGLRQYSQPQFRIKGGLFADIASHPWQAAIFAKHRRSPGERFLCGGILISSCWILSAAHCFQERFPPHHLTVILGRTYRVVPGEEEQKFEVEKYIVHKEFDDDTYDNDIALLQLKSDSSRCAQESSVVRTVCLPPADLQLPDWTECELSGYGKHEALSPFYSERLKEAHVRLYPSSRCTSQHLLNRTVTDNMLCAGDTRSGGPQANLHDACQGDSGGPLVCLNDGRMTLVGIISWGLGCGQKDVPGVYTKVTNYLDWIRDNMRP
Description for thioredoxin: A slight modification of the method of Holmgren was used. on a 96 well microtiter plate solutions of thioredoxin in 0.1 M potassium phosphate pH 6.5 buffer were preactivated for 15 minutes in the presence of 0.33 mM dithiothreitol (DTT) and 2 mM EDTA.
As a positive control, the structurally related natural products parthenolide and santonin were tested in the above assay in place of the inhibitors.

Regarding `COC(=O)C#CC(O)C1C=CC(C)n2c(=O)n(-c3ccccc3)c(=O)n21` (stereo not drawn) [Structure 231], in the series with thioredoxin, the “thioredoxin-induced turbidity of insulin at 650 nM” value (from here on “thioredoxin-induced turbidity”) is given as “turbidity decreases with increasing concentration”.

Regarding `N=C(N)NCCC[C@H](NC(=O)[C@@H]1CCN2CC[C@@](N)(Cc3ccccc3)C(=O)N12)C(=O)c1nc2ccccc2s1` [Structure 20b], the Ki was found to be 270 nM on factor VII; 966 nM on factor X; 600 nM on urokinase; 495 nM in [1] (read-out: Ki t-PA); 415 nM on Plasmin; 27 nM on Factor XI. Also, the half-life in series [2] (male, Sprague Dawley, plasma, 4 mg/kg IV) was 7.5 h; in series [2] (male, Sprague Dawley, plasma, 10 mg/kg PO), 4.5 h. Also, in [2] (male, Sprague Dawley, plasma, 10 mg/kg PO vs 4 mg/kg IV, read-out: bioavailability of orally administered compound), the bioavailability was ~27%. In series [2] (4 mg/kg IV and 10 mg/kg PO), the “Efficacy parameters aPTT and TT (FIGS. 4A and 4B)” value is listed as “in vivo efficacy”.

Consider `N=C(N)NCCC[C@H](NC(=O)[C@@H]1CC[C@@H]2CC[C@](N)(Cc3ccccc3)C(=O)N21)C(=O)c1nc2ccccc2s1` [Structure 29a], for which the Ki on factor VII came to 1800 nM; at factor X, 4600 nM; at trypsin, 0.54 nM; on Factor XI, 391 nM; on thrombin [3] it was 10.4 nM.

As to `CC1C=CC(C=O)n2c(=O)n(-c3ccccc3)c(=O)n21` (stereo not drawn) [Structure 69], half-maximal inhibition in [4] (IC50) was put at 32400 ± 1700 nM.

For `CC1=C2[C@H]3OC(=O)[C@@H](C)[C@@H]3CC[C@@]2(C)C=CC1=O` [Santonin, reference compound], the “thioredoxin-induced turbidity” value with thioredoxin is “did not block thioredoxin-induced turbidity of insulin”.

As for `COC(=O)C#CC(O)c1cccc2c1C(=O)N(c1ccccc1)C2=O` (stereo not drawn) [Structure 71], half-maximal inhibition in series [4] (IC50) was put at 4900 ± 180 nM.

Take `NCCCCC(NC(=O)C1C=C2CCCCC2n2c(=O)n(Cc3cc(F)ccc3F)c(=O)n21)C(=O)C(=O)NCCc1ccc(C(N)=O)cc1` (stereo not drawn) [Structure 101]: the Ki on thrombin [5] is < 10 nM.

Consider `CC1=CC(C(=O)NC(CCCCN)C(=O)C(=O)NCCc2ccc(C(N)=O)cc2)n2c(=O)n(C(c3ccccc3)c3ccccc3)c(=O)n2C1` (stereo not drawn) [Structure 138], for which, on thrombin [5], the inhibitory constant (Ki) is < 10 nM.

`CC1=CC(C(=O)NC(CCCCN)C(=O)C(=O)NCCc2ccc(C(N)=O)cc2)N2C(=O)C(Cc3ccccc3)(Cc3ccccc3)C(=O)N2C1` (stereo not drawn) [Structure 187]: on thrombin [5], the Ki was < 10 nM.

Take `CC(CC1C=CC(C(=O)NC(CCCCN)C(=O)C(=O)NCCc2ccc(C(N)=O)cc2)n2c(=O)n(C(Cc3ccccc3)c3ccccc3)c(=O)n21)CC(C)(C)C` (stereo not drawn) [Structure 129]: the Ki on thrombin [5] is < 10 nM.

For the molecule `CC(C)CC1C=CC(C(=O)NC(CCCCN)C(=O)C(=O)NCCc2ccc(C(N)=O)cc2)n2c(=O)n(Cc3cccs3)c(=O)n21` (stereo not drawn) [Structure 116], at thrombin [5], the Ki was < 10 nM.

For `CC1=CC(C(=O)NC(CCCCN)C(=O)C(=O)NCCc2ccc(C(N)=O)cc2)n2c(=O)n(CC(C)c3ccccc3)c(=O)n2C1c1ccccc1` (stereo not drawn) [Structure 123], the Ki at thrombin [5] is < 10 nM.

As to `NCCCCC(NC(=O)C1C=C2CCCCC2n2c(=O)n(Cc3cc(F)ccc3F)c(=O)n21)C(=O)C(=O)NCCc1ccc(C(N)=O)cc1` (stereo not drawn) [Structure 120], the Ki at thrombin [5] was < 10 nM.

Turning to `CC(CC1C=CC(C(=O)NC(CCCCN)C(=O)C(=O)NCCc2ccc(C(N)=O)cc2)n2c(=O)n(Cc3ccc(C(F)(F)F)cc3)c(=O)n21)CC(C)(C)C` (stereo not drawn) [Structure 133], the Ki on thrombin [5] was < 10 nM.

`CC1=CC(C(=O)NCC2CCC(C(=N)N)CC2)n2c(=O)n(CC(c3ccccc3)c3ccccc3)c(=O)n2C1` (stereo not drawn) [Structure 221-18]: on thrombin [5], the Ki is < 10 nM.

As to `CC1=CC(C(=O)NC(CCCCN)C(=O)C(=O)NCCc2ccc(C(N)=O)cc2)n2c(=O)n(Cc3cccc4ccccc34)c(=O)n2C1c1ccccc1` (stereo not drawn) [Structure 125], the Ki at thrombin [5] was < 10 nM.

Turning to `CC1=CC(C(=O)NC(CCCCN)C(=O)C(=O)NCCc2ccc(C(N)=O)cc2)N2C(=O)C(CC(C)C)(CC(C)C)C(=O)N2C1` (stereo not drawn) [Structure 188], the Ki on thrombin [5] was < 10 nM.

Take `CC(CC1C=CC(C(=O)NC(CCCCN)C(=O)C(=O)NCCc2ccc(C(N)=O)cc2)n2c(=O)n(CC(c3ccccc3)c3ccccc3)c(=O)n21)CC(C)(C)C` (stereo not drawn) [Structure 130]: on thrombin [5], the inhibition constant (Ki) was < 10 nM.

With `N=C(N)NCCC[C@H](NC(=O)[C@@H]1CCN2CC[C@@](N)(Cc3ccccc3)C(=O)N12)C(=O)c1nc2ccccc2s1` [20^b], the Ki at factor VII was determined as 270 nM; on urokinase it was 600 nM; in [1] (read-out: Ki tPA (tissue Plasminogen Activator)) it was 495 nM; at Plasmin, 415 nM; on Factor XI, 27 nM.

On to `CC(C)(C)CC1C=CC(C(=O)NC(CCCCN)C(=O)C(=O)NCCc2ccc(C(N)=O)cc2)n2c(=O)n(Cc3cc(F)ccc3F)c(=O)n21` (stereo not drawn) [Structure 139], for which, at thrombin [5], the Ki is < 10 nM.

`O=C(CCl)c1cccc2c1C(=O)N(c1ccccc1)C2=O` [Structure 65]: inhibition in series [4] was half-maximal at 9600 ± 100 nM (IC50).

For the molecule `COC(=O)/C=C/C(=O)C1C=CC(C)n2c(=O)n(-c3ccccc3)c(=O)n21` (stereo not drawn) [Structure 233], the “thioredoxin-induced turbidity” value with thioredoxin is listed as “turbidity decreases with increasing concentration”.

`O=C(CCl)C1CCCn2c(=O)n(-c3ccccc3)c(=O)n21` (stereo not drawn) [Structure 68] yielded an IC50 in [4] of 14200 ± 800 nM.

For `N=C(N)NCCC[C@H](NC(=O)[C@@H]1CCN2CC[C@@](N)(Cc3ccccc3)C(=O)N12)C(=O)CCl` [Structure 13b], the PT with control plasma (Concentration 1 pM) amounted to 13 s; in the series on control plasma (Concentration 10 pM), 17 s; in the series on control plasma (Concentration 50 pM) it was 18 s; in the series with control plasma (Concentration 100 pM) it was 23 s; in the series on control plasma (Concentration 200 pM), 24 s; in the series on control plasma (Concentration 500 pM), 27 s. Besides, the PT in the series with control plasma (Concentration 1 nM) stood at 30 s; in the series on control plasma (Concentration 10 nM), 31 s; in the series on control plasma (Concentration 30 nM), 31 s; with control plasma (Concentration 50 nM), 30 s; in the series on control plasma (Concentration 80 nM) it was 33 s.
